Here are results for 17 molecules from ChEMBL document CHEMBL1132834, “Phenylpropenamide derivatives as inhibitors of hepatitis B virus replication” (Bioorg Med Chem Lett, 2000).

A value given as a limit tells only on which side of the number the result lay.

Data set [1] has as its system HepG2. The data set is described as follows: (§1) Inhibition of hepatitis B virus replication in the HepAD38 cell line. The data set is classed as functional, cell-based. The following applies: Homo sapiens.
Data set [2] is described as follows: as §1. The data set is classed as functional, cell-based. The following applies: Homo sapiens.
In data set [3] the test system is Vesicular stomatitis virus. Briefly: Inhibition of Vesicular stomatis virus replication by 50% (no effect at this concentration). The data set is classed as functional, organism-based.
A further data set concerns Human alphaherpesvirus 1. The data set is described as follows: Inhibition of HSV-1 replication by 50% (no effect at this concentration). It is filed as functional, organism-based.
Data set [4] is described as follows: Concentration which inhibits hepatitis B virus replication in the HepAD38 cell line. It is filed as functional. The following applies: Homo sapiens.
Data set [5] is described as follows: Inhibition of Duck HBV replication by 50% (no effect at this concentration). The data set is classed as functional, organism-based. The note with it: Anas sp.
Data set [6] in a line: Inhibition of Woodchuck HBV replication by 50% (no effect at this concentration). It is filed as functional, organism-based. The following applies: Marmota monax.
A further data set relates to Newcastle disease virus. The data set is described as follows: Inhibition of Newcastles disease virus replication by 50% (no effect at this concentration). It is filed as functional, organism-based. The note with it: avian paramyxovirus 1.
Data set [7] has as its system Human immunodeficiency virus 1. The data set is described as follows: Inhibition of HIV-1 replication by 50% (no effect at this concentration). It is filed as functional, organism-based.
The nature of data set [8]: Reduction of viable cell numbers by 50% was evaluated by HepAD38 cellular assay. The following applies: human, HepAD38 cells; read-out: TC50 (the source's name). The data set is classed as ADME, cell-based.
For data set [9], the system named is HepG2. The data set is described as follows: The concentration of compound which inhibits hepatitis B virus replication in the HepAD38 cell line. The note with it: Homo sapiens.

In general, EC50 refers to the concentration needed to bring the measured effect to its halfway point. As to `O=C(Nc1nccs1)/C(NC(=O)c1ccccc1)=C(\Cl)c1ccccc1`, in the data set with HepG2 [1], the EC50 was above 75 µM.
By EC90 is commonly meant the point of the concentration-response curve where the effect stands at 90%. The low end stands for greater potency, the high end for weaker potency. For the molecule `COc1ccccc1/C(Br)=C(\NC(=O)c1ccc([N+](=O)[O-])cc1)C(=O)N1CCCCC1`, the EC50 is 0.13 µM in data set [2]; above 81 µM in data set [3]; above 81 µM with Human alphaherpesvirus 1; above 81 µM in data set [5]; above 81 µM in data set [6]; above 81 µM in the data set with Newcastle disease virus. This molecule displayed an EC50 in data set [7] above 81 µM. For the same molecule, the EC90 in data set [4] amounted to 0.92 µM. The CC50 in [8] was above 61 µM.
Turning to `O=C(N/C(C(=O)N1CCCCC1)=C(/Br)c1ccccc1)c1ccc(C(F)(F)F)cc1`, the EC50 in data set [2] is 5 µM; in data set [3], above 81 µM; in the data set with Human alphaherpesvirus 1 it was above 81 µM; in [5] it was above 81 µM; in data set [6] it was above 81 µM; with Newcastle disease virus, above 81 µM. The EC50 in [7] is above 81 µM. In data set [4], this molecule gave an EC90 of 34 µM. For the same molecule, the CC50 in [8] is above 62 µM.
Consider `O=C(N/C(C(=O)N1CCCCC1)=C(/Cl)c1ccc(F)cc1)c1ccccc1`, for which the EC50 in data set [2] is 3.1 µM; in data set [3], above 81 µM; in the data set with Human alphaherpesvirus 1 it was above 81 µM; in data set [5], above 81 µM; in data set [6], above 81 µM; in the data set with Newcastle disease virus, above 81 µM. The EC50 in data set [7] was above 81 µM. This molecule had an EC90 in data set [4] of 28 µM. Also, the CC50 in data set [8] is above 75 µM.
In the data set on HepG2 [1], `O=C(N/C(C(=O)N1CCCCCC1)=C(/Cl)c1ccccc1)c1ccccc1` had an EC50 above 75 µM.
In the case of `CCN(CC)C(=O)/C(NC(=O)c1ccccc1)=C(\Cl)c1ccccc1`, the EC50 in the data set on HepG2 [1] was above 75 µM.
Same read-out and setting: the value for `O=C(NCc1ccccc1)/C(NC(=O)c1ccccc1)=C(\Cl)c1ccccc1` was above 75 µM.
For the molecule `O=C(N/C(C(=O)N1CCCCC1)=C(/Br)c1ccccc1F)c1ccc([N+](=O)[O-])cc1`, the EC50 in data set [2] was 0.31 µM; in [3], above 81 µM; with Human alphaherpesvirus 1, above 81 µM; in [5], above 81 µM; in data set [6] it was above 81 µM; in the data set with Newcastle disease virus it was above 81 µM. The molecule also registered an EC50 in data set [7] above 81 µM. Besides, in [4], the EC90 turned out to be 1.8 µM. In addition, the CC50 in data set [8] was determined as 42 µM.
In the case of `Cc1ccccc1/C(Br)=C(\NC(=O)c1ccc([N+](=O)[O-])cc1)C(=O)N1CCCCC1`, the concentration giving a half-maximal response (EC50) in data set [2] was 0.6 µM; in data set [3], above 81 µM; with Human alphaherpesvirus 1, above 81 µM; in data set [5], above 81 µM; in data set [6], above 81 µM; with Newcastle disease virus, above 81 µM. In data set [7], this molecule displayed an EC50 above 81 µM. The EC90 in [4] turned out to be 4.6 µM. Moreover, in data set [8], the CC50 is above 63 µM.
Turning to `O=C(N/C(C(=O)N1CCCCC1)=C(/Br)c1ccccc1)c1ccc(Br)cc1`, the EC50 is 0.53 µM in data set [2]; above 81 µM in [3]; above 81 µM with Human alphaherpesvirus 1; above 81 µM in [5]; above 81 µM in data set [6]; above 81 µM with Newcastle disease virus. In data set [7], this molecule came in with an EC50 above 81 µM. Moreover, in data set [4], it took 3.7 µM to reach the 90% level (EC90). In data set [8], the CC50 was above 61 µM.
As to `O=C(N/C(C(=O)N1CCCC1)=C(/Cl)c1ccccc1)c1ccccc1`, the EC50 in the data set on HepG2 [1] came out at 5.6 µM.
In the case of `O=C(N/C(C(=O)N1CCCCC1)=C(/Br)c1ccccc1)c1ccc(F)cc1`, the EC50 in data set [2] was 0.86 µM; in data set [3], above 81 µM; in the data set on Human alphaherpesvirus 1 it was above 81 µM; in data set [5], above 81 µM; in data set [6] it was above 81 µM; in the data set with Newcastle disease virus, above 81 µM. This molecule also returned an EC50 in data set [7] above 81 µM. It took 4.4 µM to reach the 90% level in data set [4] (EC90). The CC50 in data set [8] was above 69 µM.
`O=C(N/C(C(=O)N1CCOCC1)=C(/Cl)c1ccccc1)c1ccccc1` showed a concentration for a half-maximal effect (EC50) in the data set on HepG2 [1] of 7.3 µM.
Turning to `O=C(N/C(C(=O)N1CCCCC1)=C(/Cl)c1ccccc1)c1ccc(F)cc1`, the half-maximal effective concentration (EC50) in [2] is 1.3 µM; in [3], above 81 µM; in the data set with Human alphaherpesvirus 1 it was above 81 µM; in [5], above 81 µM; in [6] it was above 81 µM; in the data set on Newcastle disease virus, above 81 µM. For the same molecule, the EC50 in data set [7] is above 81 µM. In addition, in [4], the EC90 worked out at 5.5 µM. In data set [8], the CC50 was above 67 µM.
As to `O=C(N/C(C(=O)N1CCCCC1)=C(/Br)c1ccccc1)c1ccc(Cl)cc1`, the EC50 in data set [2] was 0.54 µM; in [3] it was above 81 µM; in the data set on Human alphaherpesvirus 1 it was above 81 µM; in [5], above 81 µM; in [6] it was above 81 µM; with Newcastle disease virus, above 81 µM. This molecule also registered an EC50 in data set [7] above 81 µM. This molecule also returned an EC90 in data set [4] of 3.1 µM. Also, in data set [8], the CC50 was above 67 µM.
Turning to `O=C(N/C(C(=O)N1CCCCCCC1)=C(/Cl)c1ccccc1)c1ccccc1`, the EC50 in the data set on HepG2 [1] is above 75 µM.
On to `Nc1nc(=O)n([C@@H]2CS[C@H](CO)O2)cc1F` [EMTRICITABINE], for which the EC50 in the data set with HepG2 [1] is 0.03 µM; in data set [3] it was above 81 µM; in the data set with Human alphaherpesvirus 1, above 81 µM; in [5], above 81 µM; in data set [6], above 81 µM; in the data set on Newcastle disease virus it was above 81 µM. In [7], this molecule displayed an EC50 above 81 µM. Besides, in the data set on HepG2 [9], it took 0.3 µM to reach the 90% level (EC90).
